Measurements: patent publication US20150057246A1, “SILYL-CONTAINING HETEROCYCLIC COMPOUNDS AND METHODS OF USE THEREOF FOR THE TREATMENT OF VIRAL DISEASES” (priority 2012, published 2015)
Read-outs that look alike come from different tables or passages of the source.

Key:
[1] = tested on: HCV 1a Y93H replicon; test: Cell-based HCV replicon assay (TaqMan), 1a Y93H mutant replicon; settings: EC90 = concentration for ΔCT=3.2 over baseline
Protocol: (§1) Measurement of inhibition by compounds of the present invention was performed using the HCV replicon system. Several different replicons encoding different HCV genotypes or mutations were used. In addition, potency measurements were made using different formats of the replicon assay, including different ways of measurements and different plating formats. See Jan M. Vrolijk et al., A replicons-based bioassay for the measurement of interferons in patients with chronic hepatitis C, 110 J. VIROLOGICAL METHODS 201 (2003); Steven S. Carroll et al., Inhibition of Hepatitis C Virus RNA Replication by 2′-Modified Nucleoside Analogs, 278(14) J. BIOLOGICAL CHEMISTRY 11979 (2003). However, the underlying principles are common to all of these determinations, and are outlined below.
(§2) TaqMan®-Based Assay Protocol:
(§3) Compounds of the present invention were assayed for cell-based anti-HCV activity using the following protocol. Replicon cells were seeded at 5000 cells/well in 96-well collagen I-coated Nunc plates in the presence of the test compound. Various concentrations of test compound, typically in 10 serial 2-fold dilutions, were added to the assay mixture, with the starting concentration ranging from 250 μM to 1 μM. The final concentration of DMSO was 0.5%, fetal bovine serum was 5%, in the assay media. Cells were harvested on day 3 by the addition of 1× cell lysis buffer (Ambion cat #8721). The replicon RNA level was measured using real time PCR (TaqMan® assay). The amplicon was located in 5B. The PCR primers were: 5B.2F, ATGGACAGGCGCCCTGA (SEQ. ID NO. 1); 5B.2R, […] (SEQ. ID NO. 2); the probe sequence was FAM-labeled CACGCCATGCGCTGCGG (SEQ. ID NO. 3). GAPDH RNA was used as endogenous control and was amplified in the same reaction as NS5B (multiplex PCR) using primers and VIC-labeled probe recommended by the manufacturer (PE Applied Biosystem). The real-time […] reactions were run on ABI PRISM 7900HT Sequence Detection System using the following program: 48° C. for 30 minutes, 95° C. for 10 minutes, 40 cycles of 95° C. for 15 sec, 60° C. for 1 minute. The ΔCT values (CT5B-CTGAPDH) were plotted against the concentration of test compound and fitted to the sigmoid dose-response model using XLfit4 (MDL). EC50 was defined as the concentration of inhibitor necessary to achieve ΔCT=1 over the projected baseline; EC90 the concentration necessary to achieve ΔCT=3.2 over the baseline. Alternatively, to quantitate the absolute amount of replicon RNA, a standard curve was established by including serially diluted T7 transcripts of replicon RNA in the Taqman assay. All TaqMan® reagents were from PE Applied Biosystems. Such an assay procedure was described in detail in e.g. Malcolm et al., Antimicrobial Agents and Chemotherapy 50: 1013-1020 (2006).
(§4) HCV replicon EC50 assay data for various replicons and mutants was calculated for selected compounds of the present invention using this method and is provided in the tables above herein.

[2] = tested on: HCV 1a replicon; test: Cell-based HCV replicon assay (TaqMan), genotype 1a replicon; settings: HCV genotype 1a replicon cells, replicon RNA by real time PCR, day 3, EC90 = concentration for ΔCT=3.2 over baseline
Protocol: as §1, §2, §3, §4

[3] = tested on: HCV 2b replicon; test: Cell-based HCV replicon assay (TaqMan), genotype 2b replicon; settings: Hepatitis C virus, 72 h, read-out: 2b EC90, HCV genotype 2b replicon cells, replicon RNA by real time PCR, day 3; EC90 = concentration for ΔCT=3.2 over baseline
Protocol: as §1, §2, §3, §4

[4] = Hepatitis C virus, 72 h, read-out: 1a Y93H EC90, HCV 1a Y93H mutant replicon cells, replicon RNA by real time PCR, day 3

COC(=O)N[C@H](C(=O)N1CCC[C@H]1c1ncc(-c2ccc(-c3ccc4c(ccc5nc([C@@H]6C[Si](C)(C)CN6C(=O)[C@@H](NC(=O)OC)C6CCCC6)[nH]c54)c3)cc2)[nH]1)C(C)C [Compound 58]
EC90 [1, 4]: 580 nM | EC90 ([2]; Hepatitis C virus, 72 h): 0.45 nM | EC90 [3]: 265 nM

CC[C@H](C)[C@H](NC(=O)OC)C(=O)N1C[Si](C)(C)C[C@H]1c1nc2ccc3cc(-c4ccc(-c5cnc([C@@H]6CCCN6C(=O)[C@@H](NC(=O)OC)C(C)C)[nH]5)cc4)ccc3c2[nH]1 [Compound 59]
EC90 [1, 4]: > 1000 nM | EC90 ([2]; Hepatitis C virus, 72 h): 0.61 nM | EC90 [3]: 245 nM

COC(=O)N[C@H](C(=O)N1CCC[C@H]1c1ncc(-c2ccc(-c3ccc4c(ccc5nc([C@@H]6C[Si](C)(C)CN6C(=O)[C@@H](NC(=O)OC)[C@@H](C)OC)[nH]c54)c3)cc2)[nH]1)C(C)C [Compound 60]
EC90 [1, 4]: > 1000 nM | EC90 ([2]; Hepatitis C virus, 72 h): 0.21 nM | EC90 [3]: 52.8 nM

COC(=O)N[C@@H](Cc1cccc(O)c1)C(=O)N1C[Si](C)(C)C[C@H]1c1nc2ccc3cc(-c4ccc(-c5cnc([C@@H]6CCCN6C(=O)[C@@H](NC(=O)OC)C(C)C)[nH]5)cc4)ccc3c2[nH]1 [Compound 61]
EC90 [1, 4]: > 1000 nM | EC90 ([2]; Hepatitis C virus, 72 h): 0.33 nM | EC90 [3]: 37 nM

COC(=O)N[C@@H](Cn1ncnn1)C(=O)N1C[Si](C)(C)C[C@H]1c1nc2ccc3cc(-c4ccc(-c5cnc([C@@H]6CCCN6C(=O)[C@@H](NC(=O)OC)C(C)C)[nH]5)cc4)ccc3c2[nH]1 [Compound 62]
EC90 [1, 4]: > 1000 nM | EC90 ([2]; Hepatitis C virus, 72 h): 0.22 nM | EC90 [3]: 91 nM

COC(=O)N[C@H](C(=O)N1CCC[C@H]1c1ncc(-c2ccc(-c3ccc4c(ccc5nc([C@@H]6C[Si](C)(C)CN6C(=O)[C@H]6COCCN6C(=O)OC)[nH]c54)c3)cc2)[nH]1)C(C)C [Compound 63]
EC90 [1, 4]: > 1000 nM | EC90 ([2]; Hepatitis C virus, 72 h): 5.1 nM | EC90 [3]: > 1000 nM

COC(=O)N[C@H](C(=O)N1CCC[C@H]1c1ncc(-c2ccc(-c3ccc4c(ccc5nc([C@@H]6C[Si](C)(C)CN6C(=O)[C@@H]6COCCN6C(=O)OC)[nH]c54)c3)cc2)[nH]1)C(C)C [Compound 64]
EC90 [1, 4]: > 1000 nM | EC90 ([2]; Hepatitis C virus, 72 h): 1.6 nM | EC90 [3]: 273 nM

COC(=O)N[C@@H](Cc1cn(C)cn1)C(=O)N1C[Si](C)(C)C[C@H]1c1nc2ccc3cc(-c4ccc(-c5cnc([C@@H]6CCCN6C(=O)[C@@H](NC(=O)OC)C(C)C)[nH]5)cc4)ccc3c2[nH]1 [Compound 65]
EC90 [1, 4]: 564 nM | EC90 ([2]; Hepatitis C virus, 72 h): 0.36 nM | EC90 [3]: 308 nM

COC(=O)N[C@@H](Cn1cccn1)C(=O)N1C[Si](C)(C)C[C@H]1c1nc2ccc3cc(-c4ccc(-c5cnc([C@@H]6CCCN6C(=O)[C@@H](NC(=O)OC)C(C)C)[nH]5)cc4)ccc3c2[nH]1 [Compound 66]
EC90 [1, 4]: > 1000 nM | EC90 ([2]; Hepatitis C virus, 72 h): 0.39 nM | EC90 [3]: 321 nM

CC[C@H](C)[C@H](NC(=O)OC)C(=O)N1CCC[C@H]1c1ncc(-c2ccc(-c3ccc4c(ccc5nc([C@@H]6C[Si](C)(C)CN6C(=O)[C@@H](NC(=O)OC)C(C)C)[nH]c54)c3)cc2)[nH]1 [Compound 81]
EC90 [1, 4]: 994 nM | EC90 ([2]; Hepatitis C virus, 72 h): 0.3 nM | EC90 [3]: 561 nM

COC(=O)N[C@H](C(=O)N1C[Si](C)(C)C[C@H]1c1nc2ccc3cc(-c4ccc(-c5cnc([C@@H]6CCCN6C(=O)[C@@H](NC(=O)OC)C6CC6)[nH]5)cc4)ccc3c2[nH]1)C(C)C [Compound 82]
EC90 [1, 4]: 659 nM | EC90 ([2]; Hepatitis C virus, 72 h): 0.24 nM | EC90 [3]: 154 nM

COC(=O)N[C@@H](CC1CC1)C(=O)N1CCC[C@H]1c1ncc(-c2ccc(-c3ccc4c(ccc5nc([C@@H]6C[Si](C)(C)CN6C(=O)[C@@H](NC(=O)OC)C(C)C)[nH]c54)c3)cc2)[nH]1 [Compound 83]
EC90 [1, 4]: 528 nM | EC90 ([2]; Hepatitis C virus, 72 h): 0.46 nM | EC90 [3]: 406 nM

COC(=O)N[C@@H](CC(C)(C)C)C(=O)N1CCC[C@H]1c1ncc(-c2ccc(-c3ccc4c(ccc5nc([C@@H]6C[Si](C)(C)CN6C(=O)[C@@H](NC(=O)OC)C(C)C)[nH]c54)c3)cc2)[nH]1 [Compound 84]
EC90 [1, 4]: > 1000 nM | EC90 ([2]; Hepatitis C virus, 72 h): 0.92 nM | EC90 [3]: 413 nM

COC(=O)N[C@H](C(=O)N1C[Si](C)(C)C[C@H]1c1nc2ccc3cc(-c4ccc(-c5cnc([C@@H]6CCCN6C(=O)[C@@H](NC(=O)OC)C6CCCC6)[nH]5)cc4)ccc3c2[nH]1)C(C)C [Compound 85]
EC90 [1, 4]: > 1000 nM | EC90 ([2]; Hepatitis C virus, 72 h): 0.52 nM | EC90 [3]: 330 nM

COC(=O)N[C@H](C(=O)N1C[Si](C)(C)C[C@H]1c1nc2ccc3cc(-c4ccc(-c5cnc([C@@H]6CCCN6C(=O)[C@@H](NC(=O)OC)C(C)(C)OC)[nH]5)cc4)ccc3c2[nH]1)C(C)C [Compound 86]
EC90 [1, 4]: > 1000 nM | EC90 ([2]; Hepatitis C virus, 72 h): 0.77 nM | EC90 [3]: 389 nM

COC(=O)N[C@H](C(=O)N1C[Si](C)(C)C[C@H]1c1nc2ccc3cc(-c4ccc(-c5cnc([C@@H]6CCCN6C(=O)[C@@H](NC(=O)OC)[C@@H](C)O)[nH]5)cc4)ccc3c2[nH]1)C(C)C [Compound 87]
EC90 [1, 4]: > 1000 nM | EC90 ([2]; Hepatitis C virus, 72 h): 0.67 nM | EC90 [3]: 81.7 nM

CCN(CC)[C@@H](C(=O)N1CCC[C@H]1c1ncc(-c2ccc(-c3ccc4c(ccc5nc([C@@H]6C[Si](C)(C)CN6C(=O)[C@@H](NC(=O)OC)C(C)C)[nH]c54)c3)cc2)[nH]1)c1ccccc1 [Compound 88]
EC90 [1, 4]: 500 nM | EC90 ([2]; Hepatitis C virus, 72 h): 0.26 nM | EC90 [3]: 10.9 nM

COC(=O)N[C@H](C(=O)N1C[Si](C)(C)C[C@H]1c1nc2ccc3cc(-c4ccc(-c5cnc([C@@H]6CCCN6C(=O)[C@@H](NC(=O)OC)[C@@H](C)OC)[nH]5)cc4)ccc3c2[nH]1)C(C)C [Compound 89]
EC90 [1, 4]: > 1000 nM | EC90 ([2]; Hepatitis C virus, 72 h): 0.28 nM | EC90 [3]: > 1000 nM

COC(=O)N[C@@H](CO)C(=O)N1CCC[C@H]1c1ncc(-c2ccc(-c3ccc4c(ccc5nc([C@@H]6C[Si](C)(C)CN6C(=O)[C@@H](NC(=O)OC)C(C)C)[nH]c54)c3)cc2)[nH]1 [Compound 90]
EC90 [1, 4]: > 1000 nM | EC90 ([2]; Hepatitis C virus, 72 h): 0.56 nM | EC90 [3]: > 1000 nM

COC(=O)N[C@H](C(=O)N1CCC[C@H]1c1nc(Cl)c(-c2ccc(-c3ccc4c(ccc5nc([C@@H]6C[Si](C)(C)CN6C(=O)[C@@H](NC(=O)OC)C(C)C)[nH]c54)c3)cc2)[nH]1)C(C)C [Compound 94]
EC90 [1, 4]: 935 nM | EC90 ([2]; Hepatitis C virus, 72 h): 0.19 nM | EC90 [3]: 184 nM

COC(=O)N[C@H](C(=O)N1C[Si](C)(C)C[C@H]1c1nc2ccc3cc(-c4ccc(-c5cnc([C@@H]6C[C@H]7C[C@H]7N6C(=O)[C@@H](NC(=O)OC)C6CCOCC6)[nH]5)cc4)ccc3c2[nH]1)C1CCOCC1 [Compound 99]
EC90 [1, 4]: 42 nM | EC90 ([2]; Hepatitis C virus, 72 h): 0.14 nM | EC90 [3]: 3.5 nM

CC(C)(C)OC(=O)N1C[Si](C)(C)C[C@H]1c1nc2ccc3cc(-c4ccc(-c5[nH]c([C@@H]6C[C@H]7C[C@H]7N6C(=O)OC(C)(C)C)nc5Cl)cc4)ccc3c2[nH]1 [Compound 100]
EC90 [1, 4]: > 1000 nM | EC90 ([2]; Hepatitis C virus, 72 h): > 1000 nM | EC90 [3]: > 1000 nM

COC(=O)N[C@H](C(=O)N1C[Si](C)(C)C[C@H]1c1nc2ccc3cc(-c4ccc(-c5[nH]c([C@@H]6C[C@H]7C[C@H]7N6C(=O)[C@@H](NC(=O)OC)C6CCOCC6)nc5Cl)cc4)ccc3c2[nH]1)C1CCOCC1 [Compound 103]
EC90 [1, 4]: 16.1 nM | EC90 ([2]; Hepatitis C virus, 72 h): 0.082 nM | EC90 [3]: 2.85 nM

CC(C)(C)OC(=O)N1C[Si](C)(C)C[C@H]1c1nc2ccc3cc(-c4ccc(-c5cnc([C@@H]6C[C@H]7C[C@H]7N6C(=O)OC(C)(C)C)[nH]5)cc4)ccc3c2[nH]1 [Compound 104]
EC90 ([1]; read-out: 1a Y93H EC90, HCV 1a Y93H mutant replicon cells, replicon RNA by real time PCR, day 3): > 1000 nM | EC90 [2]: > 1000 nM | EC90 [3]: > 1000 nM
